Reference: patent US5766927A, “Inhibition of protein degradation in living cells with dipeptides” (Massachusetts Institute of Technology, priority 1994, dated 1998)
“Also recorded” adds a separate entry of the source. Like-named read-outs stand apart in the source and are kept apart here. Residues, ends and D or L forms follow the SMILES beside them.

Columns and labels:
[1] = tested on: yeast (S.cerevisiae) cells; experiment: Effect on yeast cell growth (optical density at 600 nm)
Protocol: (§1) Saccharomyces cerevisiaecells of the strain BWGl-7a (MATa his4 ade1 ura3 leu2) were transformed with plasmids using conventional techniques (F. Sherman et al. Methods in Yeast Genetics Cold Spring Harbor Laboratory, N.Y., 1981). The transformed cells were grown at 30° C. in a medium of 2% galactose, 0.67% Yeast Nitrogen Base without amino acids (Difco), adenine (10 μg/mL), histidine (20 μg/mL) and leucine (60 ug/mL).
The effect of 10 mM of leucine methyl ester (Leu methyl ester) on growth of exponentially growing yeast cells harboring a plasmid expressing either arginine-βgal (Arg-βgal, .largecircle., .circle-solid.) or leucine-βgal (Leu-βgal, .quadrature.,.box-solid.), supplemented with nothing (.largecircle.,.box-solid.) or with Leu methyl ester to a 10 mM final concentration (.box-solid.,.circle-solid.), was assessed. Results are represented in FIG. 1. Growth under each of these conditions was monitored by optical density at 600 nm.

Arg-βgal = experiment: Steady state β-galactosidase activity, cells expressing Arg-βgal; settings: for in vivo metabolic stabilization of Arg-βgal (βgal activity relative to untreated control): 2 hours incubation with dipeptide
Protocol: as §1

Leu-βgal [2] = experiment: Steady state β-galactosidase activity, cells expressing Leu-βgal; assay type: cell-based, Saccharomyces cerevisiae; settings: 10 mM
Protocol: (§2) Incubation was continued at 30° C.
Control cultures (.largecircle., .quadrature.) received no methyl ester.
Exponentially growing yeast cells harboring a plasmid expressing Leu- βal were supplemented with Leu methyl ester to the 10 mM final concentration (zero time) and assayed for βgal activity over a 7 hour time course (.box-solid.). A control culture (.quadrature.) received no methyl ester.

[3] = tested on: X-βgal proteins with bulky hydrophobic amino termini (Phe-βgal, Leu-βgal, Trp-βgal, Tyr-βgal, Ile-βgal); experiment: Steady state β-galactosidase activity, X-βgal proteins with bulky hydrophobic amino-terminal residues; assay type: cell-based, Saccharomyces cerevisiae; settings: 1 hour incubation
Protocol: as §2

Val-βgal = experiment: Steady state β-galactosidase activity, cells expressing Val-βgal (control); assay type: cell-based, Saccharomyces cerevisiae; settings: Leu-OMe 0 to 10 mM, 1 hour incubation
Protocol: as §2

Leu-βgal [4] = assay type: cell-based, Saccharomyces cerevisiae; settings: for half-life (metabolic stabilization) of Leu-βgal in the presence of Leu methyl ester: 10 mM, 3 hour incubation
Protocol: (§3) Transformed cells were grown as described above, except that methionine (20 ug/mL) was included, to an optical density of about 0.5 at 600 nm. Amino acid derivatives were added and incubation continued for 4 to 5 hours until the optical density was approximately 1.0. Cells from a 10 mL culture were harvested by filtration through the well of a microtiter filtration plate. Subsequently, the cells were washed several times on the filter in the growth medium lacking methionine, and resuspended in 0.4 mL of 1% galactose, 50 mM potassium phosphate buffer (pH 7.4). (^35 S)methionine (100 uCi) was then added for a specified pulse time. The cells were collected by filtration and resuspended in 0.4 mL of the growth medium containing cycloheximide (0.2 mg/mL) and trichodermin (50 ug/mL). Samples (0.1 mL) were withdrawn at indicated times, and added to 0.8 mL of cold Buffer A (50 mM Na-HEPES pH 7.5, 0.15M NaCl, 5 mM EDTA, 1% TRiton X-100) containing leupeptin, pepstatin A, antipain, aprotinin and chymostatin (Sigma), (each at 20 ug/mL) in addition to 0.4 mL of glass beads. The cells were disrupted by vortexing three times for one minute at 4° C. The extracts were centrifuged at 12,000 g for 10 minutes and the radioactivity of acid-insoluble ^35 S in the supernatants was determined. Aliquots of the supernatants containing equal amounts of total acid-insoluble ^35 S were processed for immunoprecipitation with a monoclonal antibody to βgal. Ascitic fluid containing a molar excess of the antibody (at least ten-fold) was added to each aliquot, with subsequent incubation on ice for 1 to 2 hours. Protein A-Sepharose (Pharmacia) was then added and the suspension was incubated with rocking at 4° C. for 30 minutes and centrifuged at 12,000 g for thirty seconds. The protein A-Sepharose pellets were washed three times in Buffer A containing 0.1% SDS, resuspended in an SDS, dithiothreitol (DTT)-containing electrophoretic sample buffer, heated at 100° C. for 3 minutes, and centrifuged at 12,000 g for 20 seconds. (Laemmli, Nature 227, 680 (1970)). The supernatants were subjected to electrophoresis in a 6% discontinuous polyacrylamide-SDS gel (150 by 150 by 1.5 mm), with subsequent fluorography.
(§4) After fluorography of the pulse-chase gels, the amount of radioactivity in each band was detected by scintillation counting of the respective gel slices. Half-lives were calculated from these values (appropriately adjusted using the value from a blank gel slice) assuming a first-order kinetics of protein breakdown.
A pulse-chase experiment (5 minute pulse) was carried out with cells expressing Val-βgal (A), or Leu-βgal in the presence (B) or absence (C) of a 3 hour incubation with 10 mM Leu methyl ester. Timepoints: 0 min (lane 1); 10 min (lane 2); and 30 min (lane 3). Bands are labelled: βgal (β-galactosidase); 90 kD (a cleavage product of βgal; note its absence from the lanes with metabolically stable Val-βgal lanes); X (an unrelated protein species crossreacting with the monoclonal antibody to βgal); and S (a βgal cleavage product apparently specific for metabolically stable X-βgal; species).
A pulse-chase experiment (5 minute pulse) was carried out with cells expressing Val-βgal (A), Leu-βgal (B), Leu-βgal plus 10 mM L-Ala-L-Trp (C), and Leu-βgal plus 10 mM L-Trp-L-Ala (D). Incubation with each dipeptide was carried out for 4 hours. Timepoints: 0 min (lane 1); 10 min (lane 2); and 30 min (lane 3). See legend to FIG. 6 for band designations.

Tyr-βgal = experiment: Pulse-chase experiment in vivo and half-life determination, Tyr-βgal; assay type: cell-based, Saccharomyces cerevisiae; settings: for in vivo half-life (metabolic stabilization) of Tyr-βgal: 4 hour incubation
Protocol: as §3, §4
A pulse-chase experiment (3 minute pulse) was carried out with cells expressing Tyr-βgal in the absence (A) or presence (B) of a 4 hour incubation with 10 mM Leu methyl ester. Timepoints: 0 min (lane 1); 10 min (lane 2); 30 min (lane 3); and 60 min (lane 4). See legend to FIG. 6 for band designations.

[5] = dipeptides, over the time periods used (data not shown)
[6] = 10 mM Leu methyl ester vs minus OMe

C[C@H](N)C(=O)N[C@@H](CCCNC(=N)N)C(=O)O [L-Ala-L-Arg, L-alanine-L-arginine, reference compound] (H-Ala-Arg-OH)
effect on yeast cell growth [1, 5]: no adverse effect
in vivo metabolic stabilization of Arg-βgal (βgal activity relative to untreated control) (Arg-βgal): no effect

C[C@H](N)C(=O)N[C@@H](Cc1c[nH]c2ccccc12)C(=O)O [L-Ala-L-Trp, reference compound] (H-Ala-Trp-OH)
effect on yeast cell growth [1]: no adverse effect

C[C@@H](NC(=O)[C@@H](N)CCCNC(=N)N)C(=O)O [L-Arg-D-Ala] (HELM PEPTIDE1{R.[dA]}$$$$V2.0)
in vivo metabolic stabilization of Arg-βgal (βgal activity relative to untreated control) (Arg-βgal): stronger metabolic stabilization; also recorded: much better in vivo metabolic stabilizer

C[C@H](NC(=O)[C@@H](N)CCCN=C(N)N)C(=O)O [L-Arg-L-Ala, L-arginine-L-alanine] (H-Arg-Ala-OH)
effect on yeast cell growth [1, 5]: no adverse effect

C[C@H](NC(=O)[C@@H](N)Cc1c[nH]c2ccccc12)C(=O)O [L-Trp-L-Ala, L-tryptophan-L-alanine] (H-Trp-Ala-OH)
effect on yeast cell growth [1]: no adverse effect

COC(=O)[C@@H](N)CC(C)C [Leu methyl ester, leucine methyl ester]
effect on cell growth ([1]; 10 mM Leu methyl ester, exponentially growing cells expressing Arg-βgal or Leu-βgal): no adverse effects
steady state activity (amount) of Leu-βgal (Leu-βgal [2]; 3 hours incubation, varying initial OD600): specifically increases
increase in βgal level per hour (slope of line of best fit, compared with control levels) (Leu-βgal [2]; 7 hour time course, Leu-βgal): 11 fold per hour
magnitude of the effect on Leu-βgal levels over time (Leu-βgal [2]; first 7 hours): increases linearly with time
amount of Arg-βgal (Arg-βgal; 10 mM Leu methyl ester, 3 hours incubation, varying initial OD600): does not increase
effect on Arg-βgal level (Arg-βgal; Leu-OMe 0 to 10 mM, 1 hour incubation): No effect
concentration at which the effect reaches saturation [3]: 5 to 10 mM
levels of all 5 X-βgal proteins with bulky hydrophobic amino termini ([3]; Leu-OMe 0 to 10 mM): increased
effect on Val-βgal level (Val-βgal): No effect
90 kD βgal cleavage product (Leu-βgal [4]; 10 mM Leu methyl ester): much diminished
increase in half-life of Leu-βgal (Leu-βgal [4]; [6]): 3 fold
zero-time increase in the amount of Leu-βgal protein (βgal band, lane 1) (Leu-βgal [4]; 10 mM Leu methyl ester, 5 minute pulse): 1.9 fold
half-life (metabolic stabilization) of Leu-βgal in the presence of Leu methyl ester (Leu-βgal [4]): metabolic stabilization
half-life (metabolic stabilization) of Leu-βgal in the presence of Leu methyl ester (Leu-βgal [4]; listed as Leu-OMe): increased
half-life (metabolic stabilization) of Leu-βgal in the presence of Leu methyl ester (Leu-βgal [4]; listed as leucine methyl ester): extended
amounts of the 90 kD cleavage product (Tyr-βgal; 10 mM Leu methyl ester): decrease
increase in half-life of Tyr-βgal (Tyr-βgal; [6]): 4.8 fold
zero-time increase in the amount of Tyr-βgal protein (Tyr-βgal; 10 mM Leu methyl ester, 3 minute pulse): 3.3 fold
in vivo half-life (metabolic stabilization) of Tyr-βgal (Tyr-βgal; 10 mM Leu methyl ester): metabolic stabilization
in vivo half-life (metabolic stabilization) of Tyr-βgal (Tyr-βgal; 10 mM Leu methyl ester, listed as Leu-OMe): increased
